Some test systems named below: KM12; U-251; ACHN; COLO 205; SK-MEL-5; UO-31; NCI-H460; OVCAR-4; IGROV-1; NCI-H23; HCT-116; SW-620; HCT-15; NCI-H522.
Holding throughout (test): NCI-60 cell line screen, 48 h

Structures are written as SMILES.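 All cell lines were grown in 96-well plates and treated with compound for 48 hours. The concentration for 50% growth inhibition is given as GI50.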 Calls of active or inactive are those of the source. Cut-off read from the data, not from the text of the source: active = GI50 up to about 1.1 µM and inactive = higher.

On to `COc1ccccc1NC(=O)C1=C(C)NC(C)=C(C(=O)Nc2ccccc2OC)C1C1=CC=COC1`, for which the GI50 in the assay on KM12 is 9.14 µM (inactive); in the assay with U-251, 9.71 µM (inactive); in the assay on ACHN, 9.23 µM (inactive); in the assay on COLO 205, 57 µM (inactive); in the assay with SK-MEL-5 it was 5.06 µM (inactive); with UO-31, 25.9 µM (inactive). The GI50 in the assay with NCI-H460 was 3.92 µM (inactive); with OVCAR-4, 30.5 µM (inactive); in the assay with IGROV-1, 10.8 µM (inactive); with NCI-H23, 23.9 µM (inactive); in the assay with HCT-116 it was 4.53 µM (inactive); in the assay on SW-620, 6.7 µM (inactive). Moreover, the GI50 in the assay with HCT-15 was 4.59 µM.
Consider `COC1CC(O)C(OC(=O)c2ccccc2)C(C)O1` (centres undefined), for which the GI50 with KM12, in the assay with U-251, in the assay on COLO 205, in the assay on SK-MEL-5, in the assay with NCI-H460 and in the assay with OVCAR-4 was > 100 µM (inactive) in each case. Also, the GI50 in the assay on IGROV-1 is > 100 µM (inactive); with NCI-H23, > 100 µM (inactive); in the assay with HCT-116, > 100 µM (inactive); with NCI-H522 it was > 100 µM (inactive); in the assay with SW-620, > 100 µM (inactive); in the assay on HCT-15, more than 100 µM.
`O=C1c2ccccc2C2(O)N(c3ccccc3)C(=S)N(c3ccccc3)C12O` (centres undefined): the GI50 in the assay on KM12 is > 100 µM (inactive); with U-251, > 100 µM (inactive); in the assay on ACHN, > 100 µM (inactive); in the assay with COLO 205, > 100 µM (inactive); in the assay on SK-MEL-5, > 100 µM (inactive); with UO-31, 92.7 µM (inactive). Also, the GI50 in the assay with NCI-H460, with OVCAR-4, in the assay on IGROV-1, in the assay on NCI-H23, with HCT-116 and with NCI-H522 was > 100 µM (inactive) throughout. Besides, the GI50 in the assay on SW-620 is > 100 µM (inactive); in the assay on HCT-15 it was more than 100 µM.
On to `Cc1ccc(S(=O)(=O)OCC/C(=C\[Si](C)(C)C)c2ccccc2)cc1`, for which the GI50 with KM12, in the assay with U-251, in the assay with ACHN, with COLO 205, in the assay on SK-MEL-5 and in the assay with UO-31 was > 100 µM (inactive) each time. For the same compound, the GI50 in the assay on NCI-H460, in the assay on OVCAR-4, in the assay with IGROV-1, in the assay on NCI-H23, in the assay on HCT-116 and with NCI-H522 was > 100 µM (inactive) throughout. Also, the GI50 in the assay with SW-620 is > 100 µM (inactive); in the assay on HCT-15, more than 100 µM.
As to `N#C/C(=C1\OC(=N)C(c2ccccc2)C1=O)c1ccccc1` (centres undefined), the GI50 is 48.2 µM (inactive) in the assay with KM12; > 100 µM (inactive) with U-251; 16.3 µM (inactive) with ACHN; 22.6 µM (inactive) in the assay with COLO 205; 26.9 µM (inactive) in the assay with SK-MEL-5; 19.6 µM (inactive) in the assay with UO-31. Also, the GI50 in the assay with NCI-H460 was > 100 µM (inactive); with OVCAR-4, 40.1 µM (inactive); in the assay on IGROV-1, 30.5 µM (inactive); in the assay on NCI-H23 it was > 10 µM (inactive); in the assay on HCT-116, 17.6 µM (inactive); in the assay on NCI-H522, 8.81 µM (inactive). For the same compound, the GI50 with SW-620 is 23.1 µM (inactive); with HCT-15 it was 22.1 µM.
Regarding `COc1ccc(NC(=O)CC/C(CC(=O)C(C)(C)C)=N\NC(=O)C(N)=O)cc1`, the GI50 with KM12, in the assay on U-251, with ACHN, in the assay with COLO 205, with UO-31 and in the assay with NCI-H460 was > 100 µM (inactive) each time. Moreover, the GI50 in the assay on OVCAR-4 is > 100 µM (inactive); with IGROV-1, > 100 µM (inactive); with NCI-H23 it was > 100 µM (inactive); in the assay on HCT-116 it was > 100 µM (inactive); with SW-620, > 100 µM (inactive); in the assay with HCT-15 it was more than 100 µM.
Turning to `O=C(CC1C(=O)Nc2ccccc2S1(=O)=O)Nc1ccc(Cl)cc1` (centres undefined), the GI50 in the assay with U-251 is 16 µM (inactive); in the assay with ACHN, 20.4 µM (inactive); with SK-MEL-5 it was 21.2 µM (inactive); in the assay with UO-31 it was 17.1 µM (inactive); with NCI-H460, 30.3 µM (inactive); with OVCAR-4, 22.1 µM (inactive). In addition, the GI50 in the assay with IGROV-1 was 17.2 µM (inactive); in the assay with NCI-H23, 38.9 µM (inactive); in the assay with HCT-116, 27.7 µM (inactive); with NCI-H522, 16.3 µM (inactive); with SW-620, 31.3 µM (inactive); in the assay with HCT-15, 31.6 µM.
On to `O=C(Nc1cc(Cl)c(Cl)cc1Cl)C(=O)C(C(=O)c1ccc(Cl)c(Cl)c1)C1OC(=O)c2ccccc21` (centres undefined), for which the GI50 with KM12 is 16.6 µM (inactive); in the assay on U-251, 15.3 µM (inactive); with ACHN, 14.5 µM (inactive); in the assay on COLO 205 it was 15 µM (inactive); in the assay with UO-31, 16.8 µM (inactive); in the assay on NCI-H460 it was 3.07 µM (inactive). The GI50 in the assay on OVCAR-4 was 22.9 µM (inactive); in the assay on NCI-H23 it was > 10 µM (inactive); in the assay with HCT-116 it was 15.1 µM (inactive); in the assay on NCI-H522, 10.9 µM (inactive); in the assay with SW-620, 15.6 µM (inactive); in the assay with HCT-15 it was 19.6 µM.
`CCOC(=O)C1([Se]c2ccccc2)CCCC1=O` (centres undefined): the GI50 is 30.9 µM (inactive) with KM12; 9.95 µM (inactive) in the assay on U-251; 20.3 µM (inactive) with ACHN; 16 µM (inactive) in the assay with COLO 205; 20.1 µM (inactive) in the assay with SK-MEL-5; 23.6 µM (inactive) with UO-31. The GI50 in the assay on NCI-H460 was 27.9 µM (inactive); with OVCAR-4 it was 18.8 µM (inactive); in the assay on IGROV-1, 18.6 µM (inactive); in the assay with NCI-H23, 17.4 µM (inactive); in the assay with HCT-116, 15.5 µM (inactive); with NCI-H522, 3.6 µM (inactive). The GI50 with HCT-15 is 13.2 µM.
As to `O=C(N/N=C/c1cccc(F)c1)c1ccncc1`, the GI50 in the assay on KM12, in the assay on U-251, in the assay with ACHN, with COLO 205, in the assay with SK-MEL-5 and in the assay on NCI-H460 was > 100 µM (inactive) in each case. For the same compound, the GI50 in the assay on OVCAR-4 was > 10 µM (inactive); with NCI-H23, > 100 µM (inactive); in the assay on HCT-116, > 100 µM (inactive); in the assay with NCI-H522 it was > 10 µM (inactive); in the assay on SW-620, > 100 µM (inactive); with HCT-15, more than 100 µM.
Take `Cc1ccc(S(=O)(=O)N/N=C(/CC(=O)c2c(C)[n+]([O-])c3ccccc3[n+]2[O-])C(=O)Nc2ccc(C)c(C)c2)cc1`: the GI50 with KM12 is 28.2 µM (inactive); in the assay on U-251 it was 28.5 µM (inactive); with ACHN, 25.1 µM (inactive); in the assay on COLO 205 it was 34.7 µM (inactive); in the assay with UO-31, > 100 µM (inactive); in the assay on NCI-H460, 41.9 µM (inactive). Further, the GI50 in the assay on OVCAR-4 is 33 µM (inactive); in the assay on IGROV-1, 62.8 µM (inactive); in the assay with NCI-H23 it was > 100 µM (inactive); in the assay with HCT-116, 38.2 µM (inactive); in the assay on NCI-H522, 70.1 µM (inactive); with SW-620, 33.7 µM (inactive). In addition, the GI50 in the assay with HCT-15 is 48.6 µM.
With `CN1CCc2cc3c4cc2C1Cc1ccc(cc1)Oc1cc(ccc1O)CC1c2c(cc(O)c(c2O4)O3)CCN1C` (centres undefined), the GI50 in the assay with KM12 was 1.86 µM (inactive); in the assay with U-251, 1.69 µM (inactive); with ACHN it was 7.52 µM (inactive); with COLO 205 it was 5.65 µM (inactive); in the assay on SK-MEL-5, 2.39 µM (inactive); in the assay on UO-31, 3.44 µM (inactive). Also, the GI50 is 1.87 µM (inactive) in the assay with NCI-H460; 2.22 µM (inactive) in the assay on OVCAR-4; 4.43 µM (inactive) in the assay with IGROV-1; 3.6 µM (inactive) in the assay with NCI-H23; 1.41 µM (inactive) in the assay with HCT-116; 2.79 µM (inactive) with NCI-H522. Further, the values for the GI50 in the assay on SW-620 and in the assay on HCT-15 were 2.22 µM (inactive) and 1.91 µM, respectively.
On to `O=c1oc2c3ccc4ccccc4c3n(CCCN3CCCCC3)c2c2ccccc12`, for which the GI50 in the assay with KM12 is 26.5 µM (inactive); in the assay with ACHN it was > 100 µM (inactive); in the assay on COLO 205, 10.9 µM (inactive); with UO-31 it was > 100 µM (inactive); in the assay with NCI-H460, 14.7 µM (inactive); in the assay with OVCAR-4 it was 45.9 µM (inactive). Moreover, the GI50 in the assay with IGROV-1 was > 100 µM (inactive); in the assay with HCT-116, 16.1 µM (inactive); in the assay on NCI-H522, > 100 µM (inactive); in the assay with SW-620, 5.62 µM (inactive); in the assay with HCT-15 it was 29.1 µM.
Consider `Nc1nc(Cl)cc(NCC(O)CO)n1` (centres undefined), for which the GI50 in the assay with KM12, in the assay on U-251, with COLO 205, with SK-MEL-5, in the assay with UO-31 and in the assay with NCI-H460 was > 100 µM (inactive) throughout. Moreover, the GI50 was > 100 µM (inactive) in the assay on OVCAR-4; > 100 µM (inactive) in the assay on IGROV-1; > 100 µM (inactive) in the assay with NCI-H23; > 100 µM (inactive) in the assay with HCT-116; > 100 µM (inactive) in the assay on SW-620; more than 100 µM in the assay with HCT-15.
Consider `CCN(CC)CCCNC(=O)c1ccc([N+](=O)[O-])cc1O`, for which the GI50 in the assay with KM12, in the assay on U-251, in the assay with ACHN, in the assay on COLO 205, in the assay on SK-MEL-5 and in the assay on UO-31 was > 100 µM (inactive) in each case. The GI50 in the assay on NCI-H460, in the assay with OVCAR-4, in the assay on IGROV-1, in the assay on NCI-H23, with NCI-H522 and with SW-620 was > 100 µM (inactive) each time. This compound also showed a GI50 in the assay on HCT-15 of more than 100 µM.
`CCc1c(OC(C)=O)c2c(NC3OCC(OC(C)=O)C(OC(C)=O)C3OC(C)=O)nc(SC)nc2oc1=O` (centres undefined): the GI50 in the assay on KM12, in the assay with U-251, with ACHN, in the assay on COLO 205, in the assay with SK-MEL-5 and in the assay on UO-31 was > 100 µM (inactive) throughout. Besides, the GI50 in the assay on NCI-H460, in the assay on OVCAR-4, in the assay on IGROV-1, with NCI-H23, with HCT-116 and in the assay with SW-620 was > 100 µM (inactive) throughout. The GI50 in the assay on HCT-15 was more than 100 µM.

Source of the values: ChEMBL document CHEMBL1201862, “PubChem BioAssay data set” (2004).
